# Source: publication PMC7615677 (Science translational medicine, 2023)
# Like-named read-outs stand apart in the source and are kept apart here.
# Legend:
# [1] = system: T. cruzi (Tulahuen strain); experiment: In vitro activity against other kinetoplastid parasites; format: cell-based; conditions: Trypanosoma cruzi
# Caco-2 permeability = format: in vitro ADME; conditions: human
# Experimental: (§1) The ionization constant (pKa), octanol-pH 7.4 buffer partition coefficient (Log D7.4), solubility in biorelevant buffers (FaSSIF-V2, FeSSIF-V2, FaSSGF and pH 7.4 phosphate buffered saline (PBS)) and Caco-2 permeability were determined according to previously published methods ([10]).
# Caco-2 cell monolayers = experiment: Caco-2 permeability; format: in vitro ADME
# Experimental: as §1
# [2] = In vitro metabolism, liver microsomes; format: in vitro ADME, mouse
# Experimental: Compounds were spiked into microsomal matrix prepared in 0.1 M pH 7.4 phosphate buffer containing magnesium chloride (final concentration of 3.3 mM), equilibrated for 5-10 min at 37°C. The reaction was initiated with the addition of freshly prepared solution of NADPH (final 1.3 mM). Control samples without co-factor were included for comparison. Aliquots of the reaction mixtures were taken periodically over 60 min and quenched with acetonitrile containing internal standards (metolazone and diazepam). Quenched samples were maintained on ice for approximately 20-30 min, centrifuged (for 5 min) and the supernatant was analyzed by LC-MS.
# (§2) In vitro intrinsic clearance (CLint, μL/min/mg or μL/min/10^6 cells) values were calculated from the apparent first order degradation rate constant divided by the microsome concentration or the hepatocyte cell number (10^6 viable cells/mL). In vitro CLint values were then divided by the fraction unbound in the in vitro test system (to give CLint,u) and scaled to in vivo values (mL/min/kg) using published physiological scaling factors ([28]). Blood clearance in each species was then calculated using the well-stirred model of hepatic extraction (equation 2) where Q is the hepatic blood flow and fu,blood is calculated from fu,plasma/B:P: [2] PredictedCLblood=Q x fu,blood x CLint,u/Q+fu,blood x CLint,u
# (§3) Blood clearance values were converted to plasma clearance by multiplying by the B:P.
# [3] = In vitro metabolism, cryopreserved hepatocytes; format: in vitro ADME, human
# Experimental: (§4) Cell viability was determined using trypan blue exclusion. The incubation was performed on a plate shaker (Heidolph Titrimax 100, 900 rpm) placed in a humidified incubator (37°C, 7.5% CO2) for 240 min. The reaction was initiated with the addition of compound with samples taken periodically and quenched with the addition of acetonitrile containing internal standards (metolazone and diazepam). Quenched samples were maintained on ice for approximately 20-30 min, centrifuged (for 5 min) and the supernatant analyzed by LC-MS.
# as §2, §3
# [4] = In vitro metabolism, cryopreserved hepatocytes; format: in vitro ADME, mouse
# Experimental: as §4, §2, §3
# [5] = Compartmental PK modelling and repeat-dose simulation; set-up: species or system mice; conditions: for AUC: read-out: AUC24 ss
# Experimental: To support pharmacokinetic/pharmacodynamic (PKPD) analysis, data in mice and hamsters were also analyzed by compartmental modeling using Phoenix WinNonlin (version 8.2; Certara, Princeton, NJ). For each dose level, an extravascular dosing, single compartment disposition model was fit to the combined Day 1/Day 5 repeat dose plasma data. The model was parameterized with a single volume term (V/F), and with first order absorption (K01) and elimination (K10) rate constants. Initial values for the parameter estimates were obtained by fitting of the model to the Day 1 data at the lowest dose level only, and the same initial values were used across the dose range. Experimental data used in model fitting were the mean concentration-time profiles and the average dose administered to each group. The weighting scheme (1/Y2 for mouse and 1/Y for hamster) was selected based on goodness of fit of the peak region of the experimental profiles. Parameter estimates obtained through fitting were used to simulate full repeat-dose plasma concentration-time profiles with both once-daily and twice-daily (dosing at […]) administration at each dose level and treatment duration used in the efficacy studies.
# [6] = In vitro cytotoxicity assay; format: cell-based; conditions: rat, L-6 rat skeletal myoblasts
# [7] = Reaction phenotyping with chemical CYP inhibitors; format: in vitro ADME; conditions: human liver microsomes
# Experimental: Other aspects of the incubation and analysis were as described above.
# [8] = mice, 3.125 mg/kg bid, 10 days, simulated
# [9] = mice, 12.5 mg/kg bid, 5 days, simulated
# [10] = mice, 12.5 mg/kg qd, 5 days, simulated
# [11] = mice, 25 mg/kg bid, 5 days, simulated
# [12] = mice, 25 mg/kg qd, 5 days, simulated
# [13] = mouse, plasma, po, 3.125 mg/kg, mice, 3.125 mg/kg bid, 10 days, simulated
# [14] = mouse, plasma, po, 12.5 mg/kg, mice, 12.5 mg/kg bid, 5 days, simulated
# [15] = mouse, plasma, po, 12.5 mg/kg, mice, 12.5 mg/kg qd, 5 days, simulated
# [16] = mouse, plasma, po, 25 mg/kg, mice, 25 mg/kg qd, 5 days, simulated
# [17] = mouse, plasma, po, Mice, 3.6 mg/kg, fitted
# [18] = mouse, plasma, po, Mice, 7.1 mg/kg, fitted
# [19] = mouse, plasma, po, Mice, 12.7 mg/kg, fitted
# [20] = mouse, plasma, po, Mice, 25 mg/kg, fitted
structure (smiles),measurement,setting,value
Cc1[nH]c2nc(N)nc(C)c2c1-c1ccc(C#N)c2c1OCO2 [DNDI-6174],EC50,[1],< 0.005 µM
same,Papp A→B,Caco-2 permeability,71 ×10⁻⁶ cm/s
same,Papp B→A,Caco-2 permeability,72 ×10⁻⁶ cm/s
same,A-B Mass balance,Caco-2 cell monolayers,98%
same,B-A Mass balance,Caco-2 cell monolayers,96%
same,Microsome predicted in vivo CLplasma,[2]; Mouse,12 mL/min/kg
same,In vitro Microsome CLint,"[2]; Mouse, 2 independent experiments",13 ± 0.38 µL/min/mg
same,microsomal CLint at 0.5 µM,"[2]; mouse, liver microsomes, pH 7.4, Mouse, 2 independent experiments, read-out: In vitro Microsome CLint",17 ± 0.59 µL/min/mg
same,Hepatocyte predicted in vivo CLplasma,[3]; Human,0.31 mL/min/kg
same,hepatocyte CLint at 0.5 µM,"[3]; human, cryopreserved hepatocytes",1.1 ± 0.27 µL/min/1e6 cells
same,Hepatocyte predicted in vivo CLplasma,[4]; Mouse,17 mL/min/kg
same,hepatocyte CLint at 0.5 µM,"[4]; mouse, cryopreserved hepatocytes",9.7 ± 0.091 µL/min/1e6 cells
same,K01,"[5]; Mice, 3.6 mg/kg, fitted",1.04 h⁻¹
same,K10,"[5]; Mice, 3.6 mg/kg, fitted",0.270 h⁻¹
same,V/F,"[5]; Mice, 3.6 mg/kg, fitted",2.76 L/kg
same,K01,"[5]; Mice, 7.1 mg/kg, fitted",0.833 h⁻¹
same,K10,"[5]; Mice, 7.1 mg/kg, fitted",0.246 h⁻¹
same,V/F,"[5]; Mice, 7.1 mg/kg, fitted",1.95 L/kg
same,K01,"[5]; Mice, 12.7 mg/kg, fitted",0.634 h⁻¹
same,K10,"[5]; Mice, 12.7 mg/kg, fitted",0.213 h⁻¹
same,V/F,"[5]; Mice, 12.7 mg/kg, fitted",1.43 L/kg
same,K01,"[5]; Mice, 25 mg/kg, fitted",3.00 h⁻¹
same,K10,"[5]; Mice, 25 mg/kg, fitted",0.158 h⁻¹
same,V/F,"[5]; Mice, 25 mg/kg, fitted",2.40 L/kg
same,AUC24 ss (unbound),[5]; [8],1010 ng·h/mL
same,Cav ss,[5]; [8],351 ng/mL
same,Cav ss (unbound),[5]; [8],42 ng/mL
same,Cmax (unbound),[5]; [8],98 ng/mL
same,Cmin,[5]; [8],23 ng/mL
same,Cmin (unbound),[5]; [8],3 ng/mL
same,Cum AUC (unbound),[5]; [8],10100 ng·h/mL
same,AUC24 ss,[5]; [9],82000 ng·h/mL
same,AUC24 ss (unbound),[5]; [9],9840 ng·h/mL
same,Cav ss,[5]; [9],3420 ng/mL
same,Cav ss (unbound),[5]; [9],410 ng/mL
same,Cmax (unbound),[5]; [9],780 ng/mL
same,Cmin,[5]; [9],520 ng/mL
same,Cmin (unbound),[5]; [9],62 ng/mL
same,Cum AUC,[5]; [9],410000 ng·h/mL
same,Cum AUC (unbound),[5]; [9],49200 ng·h/mL
same,AUC24 ss (unbound),[5]; [10],4920 ng·h/mL
same,Cav ss,[5]; [10],1710 ng/mL
same,Cav ss (unbound),[5]; [10],205 ng/mL
same,Cmax (unbound),[5]; [10],608 ng/mL
same,Cmin,[5]; [10],80 ng/mL
same,Cmin (unbound),[5]; [10],10 ng/mL
same,Cum AUC (unbound),[5]; [10],24600 ng·h/mL
same,AUC24 ss (unbound),[5]; [11],15800 ng·h/mL
same,Cav ss,[5]; [11],5470 ng/mL
same,Cav ss (unbound),[5]; [11],657 ng/mL
same,Cmax,[5]; [11],11700 ng/mL
same,Cmax (unbound),[5]; [11],1410 ng/mL
same,Cmin,[5]; [11],1140 ng/mL
same,Cmin (unbound),[5]; [11],137 ng/mL
same,Cum AUC,[5]; [11],657000 ng·h/mL
same,Cum AUC (unbound),[5]; [11],78800 ng·h/mL
same,AUC24 ss (unbound),[5]; [12],7880 ng·h/mL
same,Cav ss,[5]; [12],2740 ng/mL
same,Cav ss (unbound),[5]; [12],328 ng/mL
same,Cmax (unbound),[5]; [12],1080 ng/mL
same,Cmin,[5]; [12],251 ng/mL
same,Cmin (unbound),[5]; [12],30 ng/mL
same,Cum AUC (unbound),[5]; [12],39400 ng·h/mL
same,Cmax at 10 days,[5]; [13],820 ng/mL
same,AUC,[5]; [13],8410 ng·h/mL
same,AUC at 10 days,"[5]; mouse, plasma, po, 3.125 mg/kg, mice, 3.125 mg/kg bid, 10 days, simulated, read-out: Cum AUC",84100 ng·h/mL
same,Cmax,"[5]; mouse, plasma, po, 3.6 mg/kg, Mice, 3.6 mg/kg, fitted, read-out: Cmax",813 ng/mL
same,Cmax,"[5]; mouse, plasma, po, 7.1 mg/kg, Mice, 7.1 mg/kg, fitted, read-out: Cmax",2190 ng/mL
same,Cmax at 5 days,[5]; [14],6500 ng/mL
same,AUC,[5]; [14],82000 ng·h/mL
same,AUC at 5 days,"[5]; mouse, plasma, po, 12.5 mg/kg, mice, 12.5 mg/kg bid, 5 days, simulated, read-out: Cum AUC",410000 ng·h/mL
same,Cmax at 5 days,[5]; [15],5070 ng/mL
same,AUC,[5]; [15],41000 ng·h/mL
same,AUC at 5 days,"[5]; mouse, plasma, po, 12.5 mg/kg, mice, 12.5 mg/kg qd, 5 days, simulated, read-out: Cum AUC",205000 ng·h/mL
same,Cmax,"[5]; mouse, plasma, po, 12.7 mg/kg, Mice, 12.7 mg/kg, fitted, read-out: Cmax",5100 ng/mL
same,Cmax,"[5]; mouse, plasma, po, 25 mg/kg, Mice, 25 mg/kg, fitted, read-out: Cmax",8830 ng/mL
same,Cmax at 5 days,"[5]; mouse, plasma, po, 25 mg/kg, mice, 25 mg/kg bid, 5 days, simulated",11700 ng/mL
same,AUC at 5 days,"[5]; mouse, plasma, po, 25 mg/kg, mice, 25 mg/kg bid, 5 days, simulated, read-out: Cum AUC",657000 ng·h/mL
same,Cmax at 5 days,[5]; [16],9030 ng/mL
same,AUC,[5]; [16],65700 ng·h/mL
same,AUC at 5 days,"[5]; mouse, plasma, po, 25 mg/kg, mice, 25 mg/kg qd, 5 days, simulated, read-out: Cum AUC",328000 ng·h/mL
same,AUC(0-inf),[5]; [17],4840 ng·h/mL
same,CL/F,[5]; [17],12.4 mL/min/kg
same,AUC(0-inf),[5]; [18],14800 ng·h/mL
same,CL/F,[5]; [18],7.98 mL/min/kg
same,AUC(0-inf),[5]; [19],41700 ng·h/mL
same,CL/F,[5]; [19],5.08 mL/min/kg
same,AUC(0-inf),[5]; [20],65700 ng·h/mL
same,CL/F,[5]; [20],6.35 mL/min/kg
same,CC50,[6],> 63 µM
same,"CLint in absence or presence of CYP isoform inhibitors, in words",[7],no significant difference in the CLint values in the absence or presence of inhibitors
